Reference: patent US4645772A, “Levorotatory enantiomers of derivatives of 5,6,13,13a-tetrahydro-8H-dibenzo [A,G]quinolizine, preparative process, pharmaceutical compositions containing them and application” (Urpha, priority 1982, dated 1987)
“Also recorded” adds a separate entry of the source. Read-outs that look alike come from different tables or passages of the source.

Assays:
[1] = Toxicity in the mouse (LD50); details: in vivo, male mice
Protocol: The LD50 was determined in the mouse. The derivatives to be tested were administered in aqueous solution containing 7% dimethylformamide, by esophageal forced feeding of 0.4 ml per 20 g of body weight, to male mice weighing 20 to 25 g.

[2] = target: T1, α-adrenergic receptor / phenylephrine contraction of isolated rat aorta (Rattus norvegicus, UniProt P23944); test: Antagonism of phenylephrine on the isolated rat aorta (α-blocking activity, Schild analysis); details: for r (correlation coefficient of the straight line): Schild's straight line; for r (correlation coefficient of the straight line) / n (slope of Schild's straight line) / Kb: against phenylephrine; for Kb: Schild's relation, read-out: pA2 (converted); for type of antagonism against phenylephrine / affinity for the adrenergic receptor: isolated rat aorta; for affinity for the adrenergic receptor: in words
T1 construct: phenylephrine on the isolated rat aorta; from tissue; host or cells: isolated rat aorta
T1 sequence (P23944 1-561): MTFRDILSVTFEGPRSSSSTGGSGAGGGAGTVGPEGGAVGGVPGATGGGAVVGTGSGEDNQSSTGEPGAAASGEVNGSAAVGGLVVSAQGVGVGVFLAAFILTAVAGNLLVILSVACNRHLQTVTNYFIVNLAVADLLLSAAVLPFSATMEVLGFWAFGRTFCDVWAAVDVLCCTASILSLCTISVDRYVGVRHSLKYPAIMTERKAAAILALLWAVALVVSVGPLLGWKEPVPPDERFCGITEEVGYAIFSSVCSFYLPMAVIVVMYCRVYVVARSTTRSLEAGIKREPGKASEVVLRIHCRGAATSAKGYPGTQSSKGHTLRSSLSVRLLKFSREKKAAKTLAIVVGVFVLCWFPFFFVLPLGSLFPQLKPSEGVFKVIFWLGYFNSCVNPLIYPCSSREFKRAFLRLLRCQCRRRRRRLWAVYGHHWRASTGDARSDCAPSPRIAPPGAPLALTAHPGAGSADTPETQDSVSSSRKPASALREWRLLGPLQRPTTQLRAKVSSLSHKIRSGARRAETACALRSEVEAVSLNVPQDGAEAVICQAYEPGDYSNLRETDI
Text: (2) Study of α-blocking activity: study of the antagonism between the derivatives of Berbine and phenylephrine on the isolated rat aorta
The quantitative evaluation of the antagonism between the derivatives to be tested and phenylephrine was made by analysis to effect-concentration relationships in the presence and absence of antagonist and the PA2 values calculated with Schild's relation (Arunlasksha na O. and Schild H. P., Br. J. Pharmacol., 1959, 14, 48-58). […] In FIG. 2 the E effect (% of maximum contraction) in the absence and presence of STB 6 (-) is given in the ordinate, and the abscissa gives the log of the phenylephrine concentration. The different curves relate to the following concentrations:
FIG. 2b is the Schild representation (x being the ratio of phenylephrine concentrations which gives a 50% response in the presence and in the absence of STB 6 (-)). On the ordinate are Log (x-1) and on the abscissa Log [(-) STB 6].
The parameters of Schild's relation were also measured in the presence of STB 52 (-) in the same experimental conditions as for STB 6 (-).

[3] = tested on: mesenteric territory, noradrenalin; test: Vasoconstriction of perfused mesenteric territory caused by noradrenalin; type: in vivo; details: i.v. 0.5 mg.kg^-1; noradrenalin 200 ng; rat
Protocol: (§1) This study was made for the most hypotensive derivative, STB 6. The vascular reactivity of the mesenteric territory perfused in situ in the rat was measured (according to Jackson and Campbell, Eur. J. Pharmacol., 1980, 66, 217-224). After anesthetizing of the rat with pentothal (40 mg.kg^-1 i.p.) the mesenteric territory was perfused at constant flow from a catheter diverting the blood stream of the abdominal aorta. The vasoconstrictor activity resulting from periarterial electrical excitation of the sympathetic nerves (7 Hz) and […] was measured. The activities of the Berbine derivatives administered intravenously were determined for the two types of pressure response. The results obtained are shown in FIGS. 4a and 4b in which the average blood pressure ΔP mm Hg is plotted on the ordinates and time plotted on the abscissae, the injection of the product to be tested or of the placebo (constituted by the same volume of physiological serum) being at time 0.
(§2) FIG. 4a relates to the vasoconstriction caused by electrical stimulation and FIG. 4b to that caused by noradrenalin.

[4] = tested on: normotensive rat; test: Hypotensive activity in the anesthetized normotensive rat; type: in vivo; details: for effect on blood pressure: 15 minutes after i.v. administration
Protocol: The study was carried out in the normotensive rat anesthetized with pentothal (40 mg.kg^-1 i.p.). The blood pressure was measured with a catheter placed in the carotid artery and linked to a pressure cell (Statham p 23 DB) and to a recorder according to the method described by Waeldele and Stoclet (J. Pharmacol. Paris 1973, 66, 357-366). The derivatives were administered in increasing doses every 15 minutes by intravenous injection (i.v.).
Each point is the average of the values obtained in n aminals ±standard error.
In FIG. 1 the abscissae show the quantities administered of the compound to be tested, and the ordinates show the average blood pressure ΔP mm Hg.

[5] = target: T2, α2 adrenergic receptors (Rattus norvegicus, UniProt P22909); test: Binding to α2 adrenergic receptors (3H-yohimbin), rat cerebral cortex homogenate; details: for Ki: SPECIFIC BINDING, Kl, α 2, 3H-yohimbin, average of three assays
T2 construct: from tissue; host or cells: rat cerebral cortex homogenate
T2 sequence (P22909 1-465): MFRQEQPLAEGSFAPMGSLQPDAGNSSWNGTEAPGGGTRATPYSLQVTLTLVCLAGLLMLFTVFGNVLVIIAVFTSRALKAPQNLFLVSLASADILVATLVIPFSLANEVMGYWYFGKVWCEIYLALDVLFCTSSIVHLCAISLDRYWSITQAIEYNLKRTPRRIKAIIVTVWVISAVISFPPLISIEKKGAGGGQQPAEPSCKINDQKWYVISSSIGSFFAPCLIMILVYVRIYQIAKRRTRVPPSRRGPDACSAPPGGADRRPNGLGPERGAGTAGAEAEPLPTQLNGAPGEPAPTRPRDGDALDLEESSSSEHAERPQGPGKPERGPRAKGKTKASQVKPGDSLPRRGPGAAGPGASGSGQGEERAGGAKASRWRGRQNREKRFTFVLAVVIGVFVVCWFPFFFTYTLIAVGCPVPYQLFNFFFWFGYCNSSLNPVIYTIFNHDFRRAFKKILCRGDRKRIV
Protocol: (§3) The tests were carried out on rat cerebral cortex homogenate, according to the method described by P. Greengross and R. Bremmerclaus, Eur. J. Pharmacol. (1979) 55 323-326.
(§4) The results represent the average of the three assays. The Ki values were calculated according to Cheng and Prussoff (Biochem. Parmacol. 1973 22 3099-3108).

[6] = tested on: mesenteric territory, electrical stimulation of the sympathetic nerves; test: Inhibition of sympathetic excitation in vivo: vasoconstriction of perfused mesenteric territory by electrical stimulation of sympathetic nerves; details: i.v. 0.5 mg.kg^-1; 7 Hz; rat
Protocol: as §1, §2

[7] = tested on: α1 adrenergic receptors; test: Binding to α1 adrenergic receptors (3H-prazosin), rat cerebral cortex homogenate; details: for affinity for the α1 receptor with respect to the α2 receptor: in words, comparison of α1 and α2 binding; for Ki: read-out: SPECIFIC BINDING, Kl, α 1, 3H-prazosin, average of three assays
Protocol: as §3, §4

[8] = tested on: hypertensive effects of adrenalin; details: dog; cited from earlier work
[9] = tested on: hypertensive patients; details: cited from earlier work
[10] = dog; cited from earlier work
[11] = cat; cited from earlier work

## COc1cc2c(cc1OC)CN1CCc3cc(OC(=O)Cc4ccccc4)ccc3C1C2 (single isomer, unassigned; (-)) [(-) STB 52, 10,11-dimethoxy-3-phenacetyloxy-5,6,13,13a-tetrahydro-8H-dibenzo-[a,g]-quinolizine]
[1]; oral (esophageal forced feeding), 7% dimethylformamide in water
  LD50: > 800 mg/kg
[1]; oral, 800 mg.kg^-1 (limit of solubility)
  mortality: 30%
[2]
  r (correlation coefficient of the straight line): 0.99
  n (slope of Schild's straight line): 1.00
  Kb: 0.1 µM
  type of antagonism against phenylephrine: as competitive an antagonist of phenylephrine as (-) STB 6
  affinity for the adrenergic receptor: strong affinity for the adrenergic receptor

## COc1cc2c(cc1OC)CN1CCc3cc(O)ccc3C1C2 (single isomer, unassigned; (-)) [(-) STB 6, 10,11-dimethoxy-3-hydroxy-5,6,13,13a-tetrahydro-8H-dibenzo-[a,g]-quinolizine]
[3]
  effect on pressure response due to noradrenalin injection: without modifying the pressure response due to noradrenalin injection
[4]
  effect on blood pressure: significant drop in blood pressure
[4]; i.v.
  dose at which active on blood pressure: 1 mg/kg
  hypotensive activity, rank among the derivatives studied: the most hypotensive of the derivatives studied
[5]
  Ki: 1.02 ± 0.335 µM
[2]
  r (correlation coefficient of the straight line): 0.99
  n (slope of Schild's straight line): 0.93
  Kb: 0.0398 µM
  type of antagonism against phenylephrine: competitive
  affinity for the adrenergic receptor: strong affinity for the adrenergic receptor
[6]
  effect on vasoconstriction / pressure response caused by electrical stimulation of the sympathetic nerves: decreases the vasoconstriction of the mesenteric territory caused by the electrical stimulation of the sympathetic nerves; also recorded: reduces the pressure response to sympathetic excitation
[7]
  affinity for the α1 receptor with respect to the α2 receptor: strong affinity for the α1 receptor, with respect to that for the α2 receptor
[7]; rat cerebral cortex homogenate
  Ki: 0.419 ± 0.132 µM

## c1ccc2c(c1)CC1c3ccccc3CCN1C2 (stereo not shown) [Berbine, 5,6,13,13a-tetrahydro-8H-dibenzo[a,g]quinolizine]
[8]
  effect on hypertensive effects of adrenalin: reverses the hypertensive effects of adrenalin
[9]
  hypotensive activity: hypotensive activity

## Oc1ccc2c(c1)CCN1Cc3ccccc3CC21 (single isomer, unassigned; (+)) [(+) STB 4, 3-hydroxy-5,6,13,13a-tetrahydro-8H-dibenzo-[a,g]-quinolizine]
[4]
  effect on blood pressure: do not induce a significant decrease in blood pressure
[5]
  Ki: 0.321 ± 0.072 µM
[7]; rat cerebral cortex homogenate
  Ki: 1.22 ± 0.175 µM

## Oc1ccc2c(c1)CCN1Cc3ccccc3CC21 (single isomer, unassigned; (-)) [(-) STB 4, 3-hydroxy-5,6,13,13a-tetrahydro-8H-dibenzo-[a,g]-quinolizine]
[4]
  effect on blood pressure: significant drop in blood pressure
[4]; i.v.
  dose at which active on blood pressure: 1 mg/kg
[5]
  Ki: 0.307 ± 0.118 µM
[7]; rat cerebral cortex homogenate
  Ki: 0.462 ± 0.01 µM

## c1ccc2c(c1)CC1c3ccccc3CCN1C2 (single isomer, unassigned) [Berbine (-), 5,6,13,13a-tetrahydro-8H-dibenzo[a,g]quinolizine]
[10]
  sympatholytic activity: strong sympatholytic activity
[11]
  sympatholytic activity: strong sympatholytic activity
[5]
  Ki: 0.14 ± 0.044 µM
[7]
  affinity for the α1 receptor with respect to the α2 receptor: comparable affinities for the α1 and α2 receptors
[7]; rat cerebral cortex homogenate
  Ki: 0.212 ± 0.026 µM

## COc1cc2c(cc1OC)CN1CCc3cc(O)ccc3C1C2 (single isomer, unassigned; (+)) [(+) STB 6, 10,11-dimethoxy-3-hydroxy-5,6,13,13a-tetrahydro-8H-dibenzo-[a,g]-quinolizine]
[4]
  effect on blood pressure: do not induce a significant decrease in blood pressure
[5]
  Ki: 0.901 ± 0.299 µM
[2]
  type of antagonism against phenylephrine: non-competitive antagonism against phenylephrine; also recorded: non-competitive antagonist of phenylephrine
[6]
  effect on vasoconstriction / pressure response caused by electrical stimulation of the sympathetic nerves: does not have a significant activity; also recorded: devoid of this activity at the same doses
[7]; rat cerebral cortex homogenate
  Ki: 2.93 ± 0.363 µM

## COc1cc2nc(N3CCN(C(=O)c4ccco4)CC3)nc(N)c2cc1OC [3H-prazosin, ^3 H-prazosin]
[7]; radioligand, rat cerebral cortex homogenate
  maximum binding, α1 receptors: 200±21 fmoles.mg protein^-1

## ^3 H-yohimbin [3H-yohimbin, reference compound]
[5]; radioligand
  maximum binding, α2 receptors: 172.5±49.9 fmoles.mg protein^-1
[5]; read-out: KD of ligand, α2 receptors
  Kd: 0.0102 µM

## c1ccc2c(c1)CC1c3ccccc3CCN1C2 (single isomer, unassigned) [Berbine (+), 5,6,13,13a-tetrahydro-8H-dibenzo[a,g]quinolizine]
[5]
  Ki: 0.569 ± 0.137 µM
[7]
  affinity for the α1 receptor with respect to the α2 receptor: comparable affinities for the α1 and α2 receptors
[7]; rat cerebral cortex homogenate
  Ki: 4.73 ± 0.538 µM

## COC(=O)[C@@H]1[C@H]2C[C@H]3c4[nH]c5ccccc5c4CCN3C[C@@H]2CC[C@@H]1O [Yohimbin]
[7]; rat cerebral cortex homogenate
  Ki: 0.322 ± 0.026 µM
